Test results as given in the NIST ThermoML archive (doi:10.1021/je7003758).
Numbers after ± are expanded uncertainties.

Details: 298.15 K; 100 kPa; Liquid

Structure (SMILES) | mass density [kg/m3]
ClCCCl [1,2-dichloroethane] | 1245.5 ± 0.6
ClCCCCCl [1,4-dichlorobutane] | 1133.7 ± 3.4
ClCCCCCCCl [1,6-dichlorohexane] | 1063.8 ± 1.4
CCCCCl [1-chlorobutane] | 880.6 ± 0.3
CCCCCCCl [1-chlorohexane] | 873.1 ± 0.6
CCCCCCCCCl [1-chlorooctane] | 868.8 ± 1.3

Same assay, conditions: 298.15 K; 10000 kPa; Liquid

Structure (SMILES) | mass density [kg/m3]
ClCCCl [1,2-dichloroethane] | 1255.1 ± 1
